Reference: patent US20080096971A1, “Treatment of Inflammatory Disorders and Pain” (priority 2004, published 2008)
“Also recorded” adds a separate entry of the source.

Legend:
[1] = system: Guinea-pig trachea ring preparations (beta2 agonism); experiment: Beta2 Agonism Functional Assay (carbachol-contracted trachea rings); type: cell-based; conditions: for beta2 agonist activity (in words): guinea-pig trachea, formoterol positive control
Procedure: Beta2 Agonism Functional Assay
Guinea-pig trachea ring preparations were suspended in Kreb's solution containing indomethacin. After 15 minutes stabilisation, the preparations were repeated contracted using carbachol and simultaneously treated with increasing cumulative doses test compounds (0.1 nM to 0.1 μM). Beta2 agonism for each test compound was determined by its dose-dependant inhibition of carbachol-stimulated tracheal muscle twitch.

[2] = system: Serum TNFα and IL-10 levels; experiment: LPS Mouse Assay; type: in vivo, Balb C ByJ mice; conditions: LPS 1 mg/kg i.p., serum 2 hours after challenge, 0.3 and 1 mg/kg p.o. for (S)-clenbuterol
Procedure: 7 week old Balb C ByJ mice (24-28 g) were administered, either by i.p. (5 ml/kg) or oral (10 ml/kg) administration, with vehicle or test article. 30 minutes later these animals were challenged with an intraperitoneal injection of 1 mg/kg LPS. 2 hours after LPS challenge blood samples were collected under light isoflurane anaesthesia into normal tubes by retro-orbital puncture. Samples were allowed to clot at room temperature and then spun at 6000 g for 3 min at 4° C. Serum was stored at −20° C. until use. Serum TNFα and IL-10 levels were analysed in duplicate by ELISA technique.

[3] = system: male DBA1 mice (collagen II induced arthritis); experiment: Collagen II-Induced Arthritis Assay; type: in vivo; conditions: doses of 0.3, 1 and 3 mg/kg, from day 21
Procedure: Collagen II-Induced Arthritis Assay
6 to 8 week old male DBA1 mice were immunised with 0.1 ml intradermal (tail) injection of bovine type II collagen emulsified in Freund's complete adjuvant (day 0). At day 21 a booster collagen (intraperitoneal) inoculation was given, in PBS. Simultaneously, administration of test compound was given by the predetermined route of administration and delivery frequency. In addition, day 21 commenced observation of clinical signs, body weights and arthritis reaction scores. Arthritis score was assessed by the summation of all four paws scored for signs of arthritis development.

[4] = system: male Wistar rats (carrageenan-injected right hind paw); experiment: Carrageenan Paw Assay; type: in vivo; conditions: doses of 0.3, 1 and 3 mg/kg oral; 1-5 hours after carrageenan
Procedure: Fasted (18 hour) male Wistar rats (105-130 g) were weighed and a basal mercury plethysmometer reading was taken of the right hind paw by submerging the paw in the mercury up to the tibiotarsal joint. Subsequently, vehicles, reference items and test articles were administered by oral gavage (10 ml/kg). Half an hour after treatment 0.1 ml of 2% carrageenan in 0.9% saline was injected into the subplanatar area of the right hind paw. The right paw was measured again with the plethysmometer at 1, 2, 3, 4 and 5 hours after carrageenan administration.

[5] = system: Male Wistar rats (Freund's adjuvant); experiment: Rat Adjuvant Assay; type: in vivo; conditions: oral once a day from day 11; (S)-clenbuterol at 0.3, 1 and 3 mg/kg/day
Procedure: Male Wistar rats (180 to 200 g) were inoculated by subplantar injection of Freund's adjuvant (suspension of Mycobacterium butyricum in mineral oil) into the right paw at day 0. Sham inoculations were injected in the same way with 0.9% saline in matched Male Wistar rats. On day 2 animals were weighed. On days 3, 4, 7, 9 and 11 animals were weighed and both their right and left hind paws were measure by plethsymometry by submerging the paw up to the tibiotarsal joint. On day 11, rats with left hind paw volumes increased by 20% were selected for continuance in the study. On the same day continuance rats were administered test article orally (10 ml/kg in distilled water) and from then on once a day until the completion of the study. Left and right hind paw volumes were measured on days 11, 14, 15, 16, 18 and 21.

CC(C)(C)NC[C@H](O)c1cc(Cl)c(N)c(Cl)c1 [(R)-Clenbuterol]
beta2 agonist activity (in words) [1]: little such beta2 agonist activity | beta2 agonist activity (in words) ([1]; listed as (R)-clenbuterol): distinct beta2 agonism | immunomodulatory activity (serum TNFα and IL-10 after LPS) [2]: significant activity

CC(C)(C)NC[C@@H](O)c1cc(Cl)c(N)c(Cl)c1 [(S)-Clenbuterol, (S)-(+)-clenbuterol]
anti-inflammatory effect (arthritis score) [3]: clear but inverse dose-related anti-inflammatory effect | inhibition of carbachol-stimulated tracheal muscle twitch ([1]; from −10 to −7 log M, cumulative doses): up to 75% | beta2 agonist activity (in words) [1]: a little lower than that caused by formoterol | anti-inflammatory activity (paw volume) [4]: strong and dose-dependent anti-inflammatory activity | immunomodulatory activity (serum TNFα and IL-10 after LPS) [2]: significant activity | immunomodulatory activity (serum TNFα and IL-10 after LPS) ([2]; listed as (S)-clenbuterol): profound immunomodulatory profile; also recorded: less than (R)-clenbuterol | anti-inflammatory effect (hind paw volume) [5]: clear but non-dose-related anti-inflammatory effect
